Twelve compounds from PubChem BioAssay (NCI) can be followed below.

Structures are written as SMILES.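 Where inhibition never reached the appropriate level, the endpoint shown equals the highest concentration tested. Otherwise, values were interpolated linearly from a five-concentration, 48-hour dose response in 96-well plates. GI50: concentration for 50% inhibition of growth. The concentration for full growth arrest is given as TGI.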

Some test systems named below: SR leukemia; TK-10 renal; IGROV1 ovarian; A498 renal; OVCAR-8 ovarian; UO-31 renal; SK-MEL-5 melanoma; OVCAR-5 ovarian; MDA-MB-435; PC-3 prostate.
Holding throughout (assay): growth of human tumour cells (NCI), 48 h

Take `O=C(NC1C2CC3CC(C2)CC1C3)/C(Cl)=C1/Sc2ccccc2NC1=O` (configuration not stated): the TGI in the experiment on SR leukemia, with TK-10 renal, with IGROV1 ovarian, with A498 renal, in the experiment on OVCAR-8 ovarian and in the experiment with UO-31 renal was over 100 µM in each case. For the same compound, the TGI in the experiment with SK-MEL-5 melanoma and in the experiment on OVCAR-5 ovarian was over 100 µM each time.
In the case of `CCOC(=O)N1C(c2ccccc2)C=CC(c2ccccc2)N1C(=O)OCC` (configuration not stated), the TGI with SR leukemia, in the experiment on TK-10 renal, in the experiment with IGROV1 ovarian, with A498 renal, in the experiment on OVCAR-8 ovarian and in the experiment on SK-MEL-5 melanoma was over 100 µM each time. This compound yielded a TGI in the experiment with OVCAR-5 ovarian of over 100 µM.
Take `CC1(C(=O)O)CCOc2ccccc21` (configuration not stated): the TGI in the experiment with SR leukemia, with TK-10 renal, in the experiment on IGROV1 ovarian, with A498 renal, in the experiment on OVCAR-8 ovarian and in the experiment with UO-31 renal was over 100 µM in each case. The TGI with SK-MEL-5 melanoma and with OVCAR-5 ovarian was over 100 µM in each case.
For `N#C/C(=C\c1c(-c2ccccc2)[nH]c2ccccc12)C(=O)c1ccccc1`, the GI50 in the experiment on TK-10 renal was 11.1 µM; with IGROV1 ovarian, 2.53 µM; with MDA-MB-435 it was 0.37 µM; in the experiment on A498 renal, 15.3 µM; in the experiment with OVCAR-8 ovarian, 21.7 µM; in the experiment with UO-31 renal, 30.5 µM. Besides, the GI50 was 3.46 µM in the experiment on PC-3 prostate and over 100 µM in the experiment with OVCAR-5 ovarian. Further, the TGI with TK-10 renal is 86.9 µM; in the experiment with IGROV1 ovarian, 24.2 µM; in the experiment with MDA-MB-435 it was 4.14 µM; in the experiment with A498 renal, over 100 µM; in the experiment with OVCAR-8 ovarian, over 100 µM; with UO-31 renal, over 100 µM. Moreover, the TGI in the experiment with PC-3 prostate and with OVCAR-5 ovarian was over 100 µM in each case.
`O=C(CCSc1ccnc2c(C(F)(F)F)cccc12)N/N=C/c1cc(Cl)c(Cl)cc1Cl`: the GI50 with TK-10 renal was 33.6 µM; in the experiment with IGROV1 ovarian, 18.8 µM; in the experiment on MDA-MB-435 it was 27.3 µM; in the experiment on OVCAR-8 ovarian it was 32.5 µM; in the experiment with UO-31 renal, 20.6 µM; in the experiment with PC-3 prostate it was 18 µM. For the same compound, the values for the GI50 in the experiment on SK-MEL-5 melanoma and in the experiment on OVCAR-5 ovarian were 19.3 µM and 26.1 µM, respectively. Further, the TGI worked out at 72.4 µM in the experiment with TK-10 renal; 40.7 µM in the experiment on IGROV1 ovarian; 75.4 µM with MDA-MB-435; 86 µM in the experiment with OVCAR-8 ovarian; 49.2 µM in the experiment on UO-31 renal; 36.7 µM with PC-3 prostate. Besides, the TGI in the experiment on SK-MEL-5 melanoma worked out at 34.9 µM; in the experiment on OVCAR-5 ovarian, 64.6 µM.
Take `COC12CCC(C(C(=O)c3ccccc3)=C1C(=O)c1ccccc1)C(O)C2` (configuration not stated): the TGI in the experiment on SR leukemia, in the experiment with TK-10 renal, in the experiment on IGROV1 ovarian, in the experiment on A498 renal, in the experiment with OVCAR-8 ovarian and in the experiment with UO-31 renal was over 100 µM each time. The compound further had a TGI with SK-MEL-5 melanoma of over 100 µM.
Consider `COc1nc2c(nc(N)n2C2OCC(O)C(O)C2O)c(=O)n1C` (configuration not stated), for which the TGI in the experiment on SR leukemia, in the experiment with TK-10 renal, with IGROV1 ovarian, in the experiment with A498 renal, with OVCAR-8 ovarian and with UO-31 renal was over 100 µM in each case. In addition, the TGI in the experiment on SK-MEL-5 melanoma was over 100 µM.
`CCOC(=O)C1=C(Nc2ccc(Br)cc2)OC/C1=N\NC(=O)c1ccccc1O`: the TGI with SR leukemia was 18.4 µM; in the experiment on TK-10 renal, over 100 µM; in the experiment on IGROV1 ovarian, over 100 µM; in the experiment with A498 renal, 99.3 µM; in the experiment with OVCAR-8 ovarian, over 100 µM; with UO-31 renal it was over 50.9 µM. The TGI with SK-MEL-5 melanoma and in the experiment on OVCAR-5 ovarian was over 100 µM in each case.
Take `CCN(CC)CCn1c2ccc(OC)cc2c2sc3cc(OC)ccc3c(=O)c21`: the GI50 was 0.704 µM in the experiment on SR leukemia; 2.33 µM with TK-10 renal; 1.53 µM in the experiment on IGROV1 ovarian; 1.73 µM with MDA-MB-435; 1.12 µM in the experiment on A498 renal; 1.93 µM in the experiment with OVCAR-8 ovarian. Moreover, the GI50 with UO-31 renal is 1.35 µM; in the experiment on SK-MEL-5 melanoma it was 1.74 µM; with OVCAR-5 ovarian, 1.92 µM. Besides, the TGI in the experiment on SR leukemia came out at 3.05 µM; with TK-10 renal, 8.15 µM; in the experiment on IGROV1 ovarian it was 3.61 µM; in the experiment on MDA-MB-435 it was 3.22 µM; in the experiment on A498 renal, 2.35 µM; with OVCAR-8 ovarian it was 11.3 µM. Moreover, the TGI was 3.02 µM with UO-31 renal, 3.12 µM in the experiment with SK-MEL-5 melanoma and 4.92 µM in the experiment with OVCAR-5 ovarian.
Take `Nc1nccc2c1ncn2C1OC(CO)C(O)C1O` (configuration not stated): the GI50 is 41.6 µM with SR leukemia; over 100 µM in the experiment with TK-10 renal; 44.7 µM with IGROV1 ovarian; 91.5 µM in the experiment on OVCAR-8 ovarian; 28.8 µM with UO-31 renal; over 100 µM with PC-3 prostate. Moreover, the GI50 in the experiment on SK-MEL-5 melanoma and with OVCAR-5 ovarian was over 100 µM each time. In addition, the TGI in the experiment with SR leukemia, in the experiment with TK-10 renal, in the experiment with IGROV1 ovarian, with OVCAR-8 ovarian, with UO-31 renal and with PC-3 prostate was over 100 µM throughout. In addition, the TGI in the experiment with SK-MEL-5 melanoma and in the experiment with OVCAR-5 ovarian was over 100 µM in each case.
For the compound `S=c1sc2cscc2s1`, the TGI in the experiment on SR leukemia is over 100 µM; in the experiment with TK-10 renal it was 40.2 µM; with IGROV1 ovarian, over 100 µM; in the experiment on A498 renal, over 100 µM; in the experiment on OVCAR-8 ovarian, 45.9 µM; in the experiment on UO-31 renal it was 35.6 µM. The values for the TGI in the experiment on SK-MEL-5 melanoma and with OVCAR-5 ovarian were 70.6 µM and over 100 µM, respectively.
For `Cc1ccccc1C(=O)Oc1ccc(OCc2ccccc2)cc1`, the TGI in the experiment with SR leukemia is 68 µM; with TK-10 renal, over 100 µM; with IGROV1 ovarian, over 100 µM; in the experiment on A498 renal, over 100 µM; with OVCAR-8 ovarian, over 100 µM; with UO-31 renal, over 100 µM. Moreover, the TGI with SK-MEL-5 melanoma and in the experiment with OVCAR-5 ovarian was over 100 µM each time.
